Test [1] has as its target T1, Full length WRN protein (aa 2-1432) (Homo sapiens (Human), UniProt Q14191). As to the kind of experiment: WRN ATPase ADP-Glo biochemical assay, Assay Format A (10 μM ATP). Particulars: 0.25 nM WRN, 100 nM C6.18 ssDNA, 30 min preincubation, read-out: ATPase ADPGlo AC50 (uM)- Assay Format A. From the text:
Full length Werner helicase construct (Uniprot: Q14191) with an N-terminal FLAG-AVI-TEV tag was expressed using the Sf9 cell/baculovirus expression system. The harvested cell pellet was resuspended and lysed in a glass homogenizer. After insoluble material was removed by centrifugation, the helicase protein was first purified with FLAG affinity resin and then further purified through a size-exclusion chromatography column. Peak fractions containing the purified protein were concentrated, split into aliquots and frozen in liquid nitrogen to be thawed before use. Biochemical Assay Description (ATPase activity)-Assay Format A WRN activity was measured using an ATPase assay. Full length WRN protein (aa 2-1432) (production described separately) was used for the biochemical activity assays. The 39-mer ssDNA “C6.18” [NT] was purchased from IDT and used as a substrate. Quantification of ATP hydrolysis was evaluated using the ADP-Glo assay kit (Promega, Madison, WI). An enzyme titration time-course was performed to determine the optimal assay conditions. […] To evaluate the inhibitory effects of the compounds, 11-point 3-fold serial dilutions were prepared in DMSO. 50 nL of each concentration in duplicate was preincubated for 30 minutes in a 384-well microplate (Greiner #784075) with 5 μL of 0.5 nM WRN in assay buffer. The reaction was initiated by adding 5 μL of 200 nM C6.18 DNA with 20 μM ATP and was allowed to proceed for 30 minutes at room temperature. The reaction was stopped with 10 μL ADP-Glo reagent for 1 hour to remove unreacted ATP. Lastly, 20 μL ATP detection reagent was added and incubated for 1 hour to generate the luminescence signal. Control wells included “high controls” with no inhibition (DMSO, no compound) and “low controls” with maximum inhibition (no WRN). Luminescence was recorded on a PHERAstar (BMG Labtech, Ortenberg, Germany). Data was fit using the “Smart Fit” method within the Genedata Screener Software (Basel, Switzerland) to obtain IC50 values using four-parameter fits. Reported IC50s are the geometric means of at least two independent trials.

The test system of another test is HCT116 cells. As to the kind of experiment: HCT116 (MSI) 7 day viability, CellTiter Glo. Conditions: Homo sapiens, HCT-116, 168 h, 7 days, read-out: HCT116 (MSI) Viability 7 Day Abs AC50. It counts as cell-based. In outline:
(§1)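 Luminescence read-out (CellTiter Glo) after 7-day compound exposure at 37 °C. Seeding density 50 cells/well for HCT116, 500 cells/well for HT29. Background from cell-free medium wells; IC50 by four-parameter logistic fit, geometric mean of at least 2 replicates.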
(In general: ATP-based viability assays read luminescence as a measure of living cells.)

In a further test the test system is HT29 cells. As to the kind of experiment: HT29 (MSS) 7 day viability, CellTiter Glo. The test is classed as cell-based. Particulars: Homo sapiens, HT-29, 168 h, 7 days, read-out: HT29 (MSS) Viability 7 Day CTGAbs AC50. In outline:
as §1

Test [2] concerns the target T1, Full length WRN protein (aa 2-1432). Nature of the test: WRN ATPase ADP-Glo biochemical assay, Assay Format B (100 μM ATP). Particulars: 0.25 nM WRN, 100 nM C6.18 ssDNA, 60 min preincubation, read-out: ATPase ADPGlo AC50 (uM)- Assay Format B. (In ADP-Glo the light output rises with the ADP produced.)

In general, AC50 refers to the concentration giving half of the maximal activity seen.

A value given as a limit tells only on which side of the number the result lay.

T1 sequence (Q14191 2-1432): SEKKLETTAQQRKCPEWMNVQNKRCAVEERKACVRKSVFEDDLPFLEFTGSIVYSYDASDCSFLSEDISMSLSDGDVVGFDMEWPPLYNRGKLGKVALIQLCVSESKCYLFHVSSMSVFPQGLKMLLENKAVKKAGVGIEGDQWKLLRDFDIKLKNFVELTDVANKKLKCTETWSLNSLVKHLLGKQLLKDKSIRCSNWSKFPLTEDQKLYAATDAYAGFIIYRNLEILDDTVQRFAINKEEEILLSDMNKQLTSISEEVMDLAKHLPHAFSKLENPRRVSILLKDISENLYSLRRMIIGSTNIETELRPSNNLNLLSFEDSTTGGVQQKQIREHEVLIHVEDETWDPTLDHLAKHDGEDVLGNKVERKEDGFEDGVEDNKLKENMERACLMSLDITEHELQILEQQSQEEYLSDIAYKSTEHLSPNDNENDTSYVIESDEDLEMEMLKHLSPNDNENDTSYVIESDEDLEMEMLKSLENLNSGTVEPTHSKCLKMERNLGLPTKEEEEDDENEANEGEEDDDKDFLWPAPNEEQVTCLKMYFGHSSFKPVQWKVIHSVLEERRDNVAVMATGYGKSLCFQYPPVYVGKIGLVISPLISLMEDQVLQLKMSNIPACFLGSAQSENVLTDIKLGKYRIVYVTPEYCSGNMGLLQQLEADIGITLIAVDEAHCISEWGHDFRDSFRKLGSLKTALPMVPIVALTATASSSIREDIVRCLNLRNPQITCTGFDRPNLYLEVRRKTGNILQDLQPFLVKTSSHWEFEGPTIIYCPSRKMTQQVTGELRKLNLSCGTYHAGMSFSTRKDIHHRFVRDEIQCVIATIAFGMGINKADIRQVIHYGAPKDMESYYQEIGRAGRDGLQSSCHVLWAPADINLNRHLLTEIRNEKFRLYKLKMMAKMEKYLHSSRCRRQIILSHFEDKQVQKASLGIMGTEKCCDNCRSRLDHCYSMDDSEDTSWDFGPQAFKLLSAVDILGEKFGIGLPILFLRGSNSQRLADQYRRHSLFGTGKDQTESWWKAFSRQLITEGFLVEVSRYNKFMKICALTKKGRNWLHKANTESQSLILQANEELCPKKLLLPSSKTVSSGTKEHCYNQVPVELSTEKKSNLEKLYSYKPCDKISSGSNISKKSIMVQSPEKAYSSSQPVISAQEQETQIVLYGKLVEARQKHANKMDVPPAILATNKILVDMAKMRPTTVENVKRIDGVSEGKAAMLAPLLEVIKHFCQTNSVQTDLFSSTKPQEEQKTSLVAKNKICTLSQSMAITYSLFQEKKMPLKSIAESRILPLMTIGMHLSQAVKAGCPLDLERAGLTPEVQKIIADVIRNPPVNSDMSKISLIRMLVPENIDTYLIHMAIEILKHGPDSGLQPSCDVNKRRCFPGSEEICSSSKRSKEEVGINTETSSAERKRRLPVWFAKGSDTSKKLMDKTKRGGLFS

Consider `C=CC(=O)N1CCc2nn(-c3ccc(C4CC4)cc3)c3c2C(C1)N(C(=O)c1cnc(Br)cc1C)CC3` (stereo not drawn) [Compound 113, 1-(5-(6-bromo-4-methylnicotinoyl)-2-(4-cyclopropylphenyl)-2,3,4,5,5a,6,8,9-octahydro-7H-1,2,5,7-tetraazabenzo[cd]azulen-7-yl)prop-2-en-1-one], for which the half-maximal activity concentration (AC50) in test [1] is 0.005 to 0.015 µM.
Consider `C=CC(=O)N1CCOCc2nn(-c3ccc(C(C)C)cc3C)c3c2C(C1)N(C(=O)c1ccc(Br)c(O)c1)CC3` (stereo not drawn) [Compound 36, 1-(5-(4-bromo-3-hydroxybenzoyl)-2-(4-isopropyl-2-methylphenyl)-2,4,5,5a,6,8,9,11-octahydro-10-oxa-1,2,5,7-tetraazacyclonona[cd]inden-7(3H)-yl)prop-2-en-1-one], for which the AC50 is 0.015 to 0.055 µM in test [1], 500 to 1000 nM in the test with HCT116 cells and more than 3000 nM in the test with HT29 cells.
For the compound `C=CC(=O)N1CCc2nn(-c3ccc(C4CCC4)cc3O)c3c2C(C1)N(C(=O)c1cnc(Br)c2[nH]cnc12)CC3` (stereo not drawn) [Compound 137, 1-(5-(4-bromo-3H-imidazo[4,5-c]pyridine-7-carbonyl)-2-(4-cyclobutyl-2-hydroxyphenyl)-2,3,4,5,5a,6,8,9-octahydro-7H-1,2,5,7-tetraazabenzo[cd]azulen-7-yl)prop-2-en-1-one], the AC50 in test [1] was less than 0.0015 µM; with HCT116 cells it was 1 to 100 nM; in the test with HT29 cells, more than 3000 nM.
The like results for `C=CC(=O)N1CCc2nn(-c3ccc(C4CCC4)cc3O)c3c2C(C1)N(C(=O)c1ncc(C(F)(F)F)c2[nH]cnc12)CC3` (stereo not drawn) [Compound 154, 1-(2-(4-cyclobutyl-2-hydroxyphenyl)-5-(7-(trifluoromethyl)-1H-imidazo[4,5-c]pyridine-4-carbonyl)-2,3,4,5,5a,6,8,9-octahydro-7H-1,2,5,7-tetraazabenzo[cd]azulen-7-yl)prop-2-en-1-one] were, in that order, less than 0.0015 µM, 1 to 100 nM and more than 3000 nM.
Regarding `C=CC(=O)N1CCc2nn(-c3ccc(C4CC4)cc3)c3c2C(C1)N(C(=O)c1csc(S(N)(=O)=O)c1)CC3` (stereo not drawn) [Compound 125, 4-(7-acryloyl-2-(4-cyclopropylphenyl)-3,4,5,5a,6,7,8,9-octahydro-2H-1,2,5,7-tetraazabenzo[cd]azulene-5-carbonyl)thiophene-2-sulfonamide], in test [1], the AC50 was more than 0.055 µM.
Same read-out and setting: the figure for `C=CC(=O)N1CCc2nn(-c3ccc(C4CC4)cc3)c3c2C(C1)N(C(=O)C12CC(C(F)(F)F)(C1)C2)CC3` (stereo not drawn) [Compound 121, 1-(2-(4-cyclopropylphenyl)-5-(3-(trifluoromethyl)bicyclo [1.1.1]pentane-1-carbonyl)-2,3,4,5,5a,6,8,9-octahydro-7H-1,2,5,7-tetraazabenzo[cd]azulen-7-yl)prop-2-en-1-one] is 0.015 to 0.055 µM.
Turning to `C=CC(=O)N1CCc2nn(-c3ccc(C4CCC4)cc3O)c3c2C(C1)N(C(=O)c1cnc(C(F)(F)F)c2[nH]ncc12)CC3` (stereo not drawn) [Compound 151, 1-(2-(4-cyclobutyl-2-hydroxyphenyl)-5-(7-(trifluoromethyl)-1H-pyrazolo[3,4-c]pyridine-4-carbonyl)-2,3,4,5,5a,6,8,9-octahydro-7H-1,2,5,7-tetraazabenzo[cd]azulen-7-yl)prop-2-en-1-one], the concentration at half-maximal activity (AC50) in test [1] is less than 0.0015 µM; in the test with HCT116 cells, 1 to 100 nM; with HT29 cells, more than 3000 nM.
In the same order, the values of `CC(C)c1ccc(-n2nc3c4c2CCN(C(=O)c2ccc(Br)c5[nH]cnc25)C4CN(C(=O)C2=CCC2)CC3)cc1` (stereo not drawn) [Compound 16, (7-bromo-1H-benzo[d]imidazol-4-yl)(7-(cyclobut-1-ene-1-carbonyl)-2-(4-isopropylphenyl)-2,3,4,5a,6,7,8,9-octahydro-5H-1,2,5,7-tetraazabenzo[cd]azulen-5-yl)methanone] are more than 0.055 µM, more than 1000 nM and more than 3000 nM.
Take `C=CC(=O)N1CCc2nn(-c3ccc(C4CC4)cc3)c3c2C(C1)N(C(=O)c1ccc(C(F)(F)F)nn1)CC3` (stereo not drawn) [Compound 115, 1-(2-(4-cyclopropylphenyl)-5-(6-(trifluoromethyl)pyridazine-3-carbonyl)-2,3,4,5,5a,6,8,9-octahydro-7H-1,2,5,7-tetraazabenzo[cd]azulen-7-yl)prop-2-en-1-one]: the AC50 is 0.015 to 0.055 µM in test [1], 500 to 1000 nM in the test with HCT116 cells and more than 3000 nM with HT29 cells.
The like results for `C=CC(=O)N1CCN(C)c2nn(-c3ccc(C(C)C)cc3)c3c2C(C1)N(C(=O)c1ccc(Br)c2[nH]cnc12)CC3` (stereo not drawn) [Compound 56, 1-(5-(7-bromo-1H-benzo[d]imidazole-4-carbonyl)-2-(4-isopropylphenyl)-10-methyl-2,4,5,5a,6,8,9,10-octahydro-1,2,5,7,10-pentaazacycloocta[cd]inden-7(3H)-yl)prop-2-en-1-one] were, in that order, 0.015 to 0.055 µM, 250 to 500 nM and more than 3000 nM.
As for `C=CC(=O)N1CCc2nn(-c3ccc(C4CC4)cc3)c3c2C(C1)N(C(=O)c1cnc2[nH]c(C(F)(F)F)nc2c1)CC3` (stereo not drawn) [Compound 124, 1-(2-(4-cyclopropylphenyl)-5-(2-(trifluoromethyl)-3H-imidazo[4,5-b]pyridine-6-carbonyl)-2,3,4,5,5a,6,8,9-octahydro-7H-1,2,5,7-tetraazabenzo[cd]azulen-7-yl)prop-2-en-1-one], the AC50 in test [1] was in the range of 0.015 to 0.055 µM.
On the same count and under the same terms, the figure for `C=CC(=O)N1CCc2nn(-c3ccc(C4CC4)cc3)c3c2C(C1)N(C(=O)c1cnc2c(c1)c(C(F)(F)F)nn2C)CC3` (stereo not drawn) [Compound 111, 1-(2-(4-cyclopropylphenyl)-5-(1-methyl-3-(trifluoromethyl)-1H-pyrazolo[3,4-b]pyridine-5-carbonyl)-2,3,4,5,5a,6,8,9-octahydro-7H-1,2,5,7-tetraazabenzo[cd]azulen-7-yl)prop-2-en-1-one] is 0.015 to 0.055 µM.
`C=CC(=O)N1CCc2nn(-c3ccc(C4CC4)cc3)c3c2C(C1)N(C(=O)c1ccc(Br)nn1)CC3` (stereo not drawn) [Compound 108, 1-(5-(6-bromopyridazine-3-carbonyl)-2-(4-cyclopropylphenyl)-2,3,4,5,5a,6,8,9-octahydro-7H-1,2,5,7-tetraazabenzo[cd]azulen-7-yl)prop-2-en-1-one]: in test [1], the AC50 fell in the range of 0.005 to 0.015 µM.
Take `C=CC(=O)N1CCc2nn(-c3ccc(C4CCC4)c(F)c3N)c3c2C(C1)N(C(=O)c1cnc(C(F)(F)F)c(O)c1)CC3` (stereo not drawn) [Compound 71, 1-(2-(2-amino-4-cyclobutyl-3-fluorophenyl)-5-(5-hydroxy-6-(trifluoromethyl)nicotinoyl)-2,3,4,5,5a,6,8,9-octahydro-7H-1,2,5,7-tetraazabenzo[cd]azulen-7-yl)prop-2-en-1-one]: the AC50 is 0.005 to 0.015 µM in test [2], 1 to 100 nM in the test with HCT116 cells and more than 3000 nM in the test on HT29 cells.
In the case of `C=CC(=O)N1CCc2nn(-c3ccc(C4CC4)cc3O)c3c2C(C1)N(C(=O)c1ccc(C(F)(F)F)c(F)c1N)CC3` (stereo not drawn) [Compound 259, 1-(5-(2-amino-3-fluoro-4-(trifluoromethyl)benzoyl)-2-(4-cyclopropyl-2-hydroxyphenyl)-2,3,4,5,5a,6,8,9-octahydro-7H-1,2,5,7-tetraazabenzo[cd]azulen-7-yl)prop-2-en-1-one], the AC50 in test [2] is 0.015 to 0.055 µM; in the test on HCT116 cells, 1 to 100 nM; in the test with HT29 cells, more than 3000 nM.

For the origin of these results see US20250346600A1, “TRICYCLIC DERIVATIVES AND RELATED USES” (MOMA Therapeutics, Inc., priority 2023, published 2025).
